Measurements taken from US7629364B2, “Compounds that abrogate DNA-damage-induced cell cycle G2 checkpoint and/or augment anti-cancer activity of DNA-damaging treatments” (Canbas Co., Ltd., priority 2002, dated 2009).
“Also recorded” adds a separate entry of the source. Read-outs that look alike come from different tables or passages of the source.

Tests used:
MK-45 cells = experiment: Colony formation analysis of MK-45 cells; assay type: cell-based, human; conditions: 14 days culture; for colony formation, combination with CPT-11: 10 μM CBDC compound plus 10 μg/ml CPT-11, 3 hours; for colony formation, CBDC compound alone: 10 μM, 3-hour treatment
Procedure: MK-45 cells from a human gastric cancer derived cell line, were seeded in 6-well plates at 1000 cells/well. After the overnight culture, the cells were treated 10 μM of various CBDC compounds, 10 μg/ml CPT-11, or a combination of CBDC compounds and CPT-11 for three (3) hours. The CBDC compounds tested were: CBDC402, CBDC412, CBDC413, and CBDC418. The culture medium was changed and cells were cultured for 14 days, after which the colonies were fixed with methanol and stained with 0.1% crystal violet.

Jurkat cells [1] = experiment: G2 checkpoint abrogation in bleomycin-treated Jurkat cells (flow cytometry of DNA content); assay type: cell-based, human; conditions: for abrogation of bleomycin-induced accumulation of G2/M cells (% G2/M): bleomycin 40 μg/ml plus compound 0.2-50 μg/ml
Procedure: (§1) Cell culture. A human T-cell leukemia-derived cell line, Jurkat, was cultured in RPMI 1640 media (Sigma) supplemented with 10% fetal calf serum (IBL: Immuno-Biological Laboratories, Gunma, Japan) at 37° C./5% CO2. A human colon cancer-derived cell line, HCT116, was cultured in McCoy's 5A Medium Modified (Gibco BRL) and supplemented with 10% fetal calf serum at 37° C./5% CO2. Normal human peripheral blood lymphocytes were separated by Ficoll-Paque® (Pharmacia) and cultured in the presence of 0.1 μg/ml PHA and 1 μg/ml IL-2.
(§2) Cell-cycle analysis. […] Briefly, two million cells were resuspended and incubated in 300 μl Krishan's solution (0.1% Sodium citrate, 50 μg/ml PI, 20 μg/ml RNase A and 0.5% NP-40) for 1 hr at 4° C. and analyzed by flow cytometry using a FACScan™ flow cytometer (Beckton Dickinson, Mountain View, Calif.) with the CELLQuest™ program (Beckton Dickinson).
DNA of treated Jurkat cells was stained with propidium iodine, and the cell cycle status of each cell was assessed by flow cytometry.
CBDC compounds 004, 402, 403, 404, 405, 406, 407, 408, 409, 410, and 411 were tested. Cells were harvested, DNA was stained with propidium iodine, and the percentage of cells in G2/M phase (% G2/M) was determined by flow cytometry.
Activated normal T cells and leukemic T cells (Jurkat cells) were treated with agents to induce accumulation of cells at G2 or M phase, and the effect of CBDC402 on progression of cells through cell cycle checkpoints was measured. After treatments, cells were harvested, DNA was stained, and the cell cycle stage for each cell was determined by flow cytometry as described above. […] In another experiment, activated normal T cells received no treatment (control) or were treated with colchicine or a combination of […] and colchicine.

Activated normal T cells [2] = experiment: G2 checkpoint in bleomycin-treated activated normal T cells (flow cytometry); assay type: cell-based, human
Procedure: as §1, §2
(§3) Activated normal T cells and leukemic T cells (Jurkat cells) were treated with agents to induce accumulation of cells at G2 or M phase, and the effect of CBDC402 on progression of cells through cell cycle checkpoints was measured. After treatments, cells were harvested, DNA was stained, and the cell cycle stage for each cell was determined by flow cytometry as described above. […]

[3] = test system: HCT-116 human colon carcinoma cells; experiment: Xenograft tumor growth in SCID mice; assay type: in vivo; conditions: HCT-116 xenograft, intraperitoneal
Procedure: Treatment was initiated when the primary tumors reached the size of 0.1 cm^3 (7 or 8 mm, designated as Day 1).
Anti-cancer agent CPT-11 (CAMPTOSAR®, Irinotecan, a topoisomerase inhibitor) and CBDC402 were administered by intraperitoneal injection in the following treatment regimens: […] at 20 mg/kg once a week; CBDC402 at 20 mg/kg twice a week; CBDC402 at 40 mg/kg twice a week; CBDC402 at 20 mg/kg twice and week plus CPT-11 at 20 mg/kg once a week; and CBDC402 at 40 mg/kg twice a week plus CPT-11 at 20 mg/kg once a week. DMSO was administered as a control treatment. Tumor sizes were measured using calipers three times a week, and the volume was calculated using the formula; […]=[width (mm)^2×length (mm)]/2. Mean tumor sizes for each treatment group (n=4) were plotted against the days of treatment.

Activated normal T cells [4] = experiment: M phase checkpoint in colchicine-treated activated normal T cells (flow cytometry); assay type: cell-based, human; conditions: FIG. 10c
Procedure: as §1, §2, §3

Jurkat cells [5] = experiment: M phase checkpoint in colchicine-treated Jurkat cells (flow cytometry); assay type: cell-based, human; conditions: 24 hrs
Procedure: as §1, §2
Jurkat cells were treated with colchicine (5 ug/ml), and colchicine plus the compound CBDC402 in various concentrations (0.2, 0.39, 0.78, 1.56, 3.125, 6.25, 12.5, 25 and 50 ug/ml) for 24 hrs. DNA of treated Jurkat cells was stained with propidium iodine, and the cell cycle status of each cell was assessed by flow cytometry.

HCT116 cells = test system: HCT116 cells
Procedure: The subG1 population was determined by staining HCT116 with Krishan's solution and analyzed by flow cytometer. The dead cells were identified on the basis of DNA content, and the percentage of cells in sub G1 (% subG1) was calculated.

[6] = test system: HCT116 human colon carcinoma cells; experiment: G2 checkpoint induced by various anti-cancer agents in HCT116 cells (flow cytometry); assay type: cell-based; conditions: co-incubation with CBDC004 2, 10 or 50 μM, 24 hrs
Procedure: as §1, §2
DNA was stained with propidium iodine, and the cell cycle status of each cell was assessed by flow cytometry.

O=C(Oc1ccc(F)cc1)c1ccc(Br)cc1 [CBDC412, 4-Bromo-benzoic acid 4-fluoro-phenyl ester]
colony formation, combination with CPT-11 (MK-45 cells): a slight suppression of colony formation above that seen with CPT-11 alone
colony formation, CBDC compound alone (MK-45 cells): a slight suppression of colony formation

CC.Cc1ccc(OC(=O)c2ccc(F)cc2)cc1 [CBDC407, 4-Fluoro-benzoic acid p-tolyl ester; compound with ethane]
abrogation of bleomycin-induced accumulation of G2/M cells (% G2/M) (Jurkat cells [1]; Jurkat cells, 24 hrs): abrogated the G2 cell cycle checkpoint in bleomycin-treated Jurkat cells in a dose-dependent manner

bleomycin [reference compound]
accumulation of cells at G2 phase by bleomycin alone (Activated normal T cells [2]; FIG. 10a): caused accumulation of a minor population of cells at G2 phase
accumulation of cells in G2/M phase by agent alone (Jurkat cells [1]; Jurkat cells, bleomycin 40 μg/ml, 24 hrs): induced an accumulation of cells in cell cycle G2/M phase
accumulation of cells at G2 phase by bleomycin alone (Jurkat cells [1]; leukemic T cells (Jurkat cells), FIG. 10b): caused accumulation of a major population of cells at G2 phase

CCc1c2c(nc3ccc(OC(=O)N4CCC(N5CCCCC5)CC4)cc13)-c1cc3c(c(=O)n1C2)COC(=O)[C@]3(O)CC [CPT-11, Irinotecan, reference compound]
colony formation, CPT-11 alone (MK-45 cells; 10 μg/ml, 3 hours): significant suppression of colony formation
tumor growth, CPT-11 alone ([3]; 20 mg/kg once a week): reduced tumor growth

COc1cc2c(c(OC)c1OC)-c1ccc(OC)c(=O)cc1[C@@H](NC(C)=O)CC2 [colchicine, reference compound]
accumulation of cells in M phase by colchicine alone (Activated normal T cells [4]): caused an accumulation of cells in M phase
accumulation of cells in G2/M phase by agent alone (Jurkat cells [5]; colchicine 5 ug/ml): induced an accumulation of cells in G2/M phase cells

Cc1ccc(OC(=O)c2ccc(Br)cc2)cn1 [CBDC418, 4-Bromo-benzoic acid 6-methyl-pyridin-3-yl ester]
colony formation, CBDC compound alone (MK-45 cells): did not have an appreciable effect on colony formation

CC.Cc1ccc(OC(=O)c2ccc(Cl)cc2Cl)cc1 [CBDC406, 2,4-Dichloro-benzoic acid p-tolyl ester; compound with ethane]
abrogation of bleomycin-induced accumulation of G2/M cells (% G2/M) (Jurkat cells [1]; Jurkat cells, 24 hrs): abrogated the G2 cell cycle checkpoint in bleomycin-treated Jurkat cells in a dose-dependent manner

Cc1ccc(OC(=O)c2ccc(Br)cc2)cc1 [CBDC402, 4-Bromo-benzoic acid p-tolyl ester]
effect on bleomycin-induced increase of cells at G2 phase (Activated normal T cells [2]; combination of bleomycin and CBDC402, FIG. 10a): abolished the bleomycin-induced increase of activated normal T cells at G2 phase
abrogation of bleomycin-induced accumulation of G2/M cells (% G2/M) (Jurkat cells [1]; Jurkat cells, 24 hrs): abolished the bleomycin-induced accumulation of G2/M cells in a dose-dependent manner; also recorded: abrogated the G2 cell cycle checkpoint in bleomycin-treated Jurkat cells in a dose-dependent manner
relative G2 checkpoint abrogating activity among CBDC compounds tested (dose-response curve) (Jurkat cells [1]; Jurkat cells, bleomycin 40 ug/ml, 24 hrs, FIG. 3): showed the highest activity
effect on bleomycin-induced increase of cells at G2 phase (Jurkat cells [1]; leukemic T cells (Jurkat cells), combination of bleomycin and CBDC402, FIG. 10b): abolished the large bleomycin-induced increase of leukemic T cells (Jurkat cells) at G2 phase
effect on colchicine-induced increase of cells at M phase (Activated normal T cells [4]; combination with colchicine): did not affect the colchicine-induced increase of activated normal T cells at M phase
colony formation, combination with CPT-11 (MK-45 cells): almost complete suppression of colony formation
colony formation, CBDC compound alone (MK-45 cells): significant suppression of colony formation
tumor growth, CBDC402 alone ([3]; 20 or 40 mg/kg twice a week (both concentrations)): gave a slight reduction in tumor growth
tumor growth, combination with CPT-11 ([3]; CBDC402 20 or 40 mg/kg twice a week plus CPT-11 20 mg/kg once a week): significantly reduced or inhibited tumor growth
abrogation of colchicine-induced G2/M accumulation (Jurkat cells [5]; colchicine 5 ug/ml plus compound 0.2-50 ug/ml): did not abrogate this G2/M accumulation at any CBDC402 concentration

CC.Cc1ccc(OC(=O)c2ccc(Cl)cc2)cc1C [CBDC409, 4-Chloro-benzoic acid 3,4-dimethyl-phenyl ester; compound with ethane]
abrogation of bleomycin-induced accumulation of G2/M cells (% G2/M) (Jurkat cells [1]; Jurkat cells, 24 hrs): abrogated the G2 cell cycle checkpoint in bleomycin-treated Jurkat cells in a dose-dependent manner

CC.Cc1ccc(OC(=O)c2c(F)c(F)c(F)c(F)c2F)cc1 [CBDC408, 2,3,4,5,6-Pentafluoro-benzoic acid p-tolyl ester; compound with ethane]
abrogation of bleomycin-induced accumulation of G2/M cells (% G2/M) (Jurkat cells [1]; Jurkat cells, 24 hrs): abrogated the G2 cell cycle checkpoint in bleomycin-treated Jurkat cells in a dose-dependent manner

CC[C@@]1(O)C(=O)OCc2c1cc1n(c2=O)Cc2cc3ccccc3nc2-1 [canptothecine, camptothecin]
cytotoxic effect (% subG1) of anti-cancer agent alone (HCT116 cells; HCT116 cells, without CBDC004): had a cytotoxic effect on HCT116 cells

Cc1ccc(OC(=O)c2cc(F)c(F)c(F)c2)cc1 [CBDC403, 3,4,5-Trifluoro-benzoic acid p-toly 1 ester]
abrogation of bleomycin-induced accumulation of G2/M cells (% G2/M) (Jurkat cells [1]; Jurkat cells, 24 hrs): abrogated the G2 cell cycle checkpoint in bleomycin-treated Jurkat cells in a dose-dependent manner

CC.O=C(Oc1ccc(Br)cc1)c1ccc(F)cc1 [CBDC404, 4-Fluoro-benzoic acid 4-bromo-pheny 1 ester; compound with ethane]
abrogation of bleomycin-induced accumulation of G2/M cells (% G2/M) (Jurkat cells [1]; Jurkat cells, 24 hrs): abrogated the G2 cell cycle checkpoint in bleomycin-treated Jurkat cells in a dose-dependent manner

CC.Cc1ccc(OC(=O)c2ccc(Cl)c(Cl)c2)cc1 [CBDC405, 3,4-Dichloro-benzoic acid p-tolyl ester; compound with ethane]
abrogation of bleomycin-induced accumulation of G2/M cells (% G2/M) (Jurkat cells [1]; Jurkat cells, 24 hrs): abrogated the G2 cell cycle checkpoint in bleomycin-treated Jurkat cells in a dose-dependent manner

COc1cccc2c1C(=O)c1c(O)c3c(c(O)c1C2=O)C[C@@](O)(C(=O)CO)C[C@@H]3O[C@H]1C[C@H](N)[C@H](O)[C@H](C)O1 [adriamycine, adriamycin]
cytotoxic effect (% subG1) of anti-cancer agent alone (HCT116 cells): had a cytotoxic effect on HCT116 cells

CC.O=C(Oc1ccc(O)cc1)c1ccc(F)cc1 [CBDC411, 4-Fluoro-benzoic acid 4-hydroxy-phenyl ester; compound with ethane]
abrogation of bleomycin-induced accumulation of G2/M cells (% G2/M) (Jurkat cells [1]; Jurkat cells, 24 hrs): abrogated the G2 cell cycle checkpoint in bleomycin-treated Jurkat cells in a dose-dependent manner

CC.O=C(Oc1ccc(O)cc1)c1ccc(Cl)cc1 [CBDC410, 4-Chloro-benzoic acid 4-hydroxy-phenyl ester; compound with ethane]
abrogation of bleomycin-induced accumulation of G2/M cells (% G2/M) (Jurkat cells [1]; Jurkat cells, 24 hrs): abrogated the G2 cell cycle checkpoint in bleomycin-treated Jurkat cells in a dose-dependent manner

COc1ccc(OC(=O)c2ccc(Cl)cc2)cc1 [CBDC004, 4-Chloro-benzoic acid 4-methoxy-phenyl ester]
abrogation of bleomycin-induced accumulation of G2/M cells (% G2/M) (Jurkat cells [1]; Jurkat cells, 24 hrs): abrogated the G2 cell cycle checkpoint in bleomycin-treated Jurkat cells in a dose-dependent manner
effect on G2/M accumulation induced by bleomycin, adriamycin, camptothecin or cisplatin [6]: reduced the number of cells at G2/M

O=C(Oc1ccc(C(F)(F)F)cc1)c1ccc(Br)cc1 [CBDC413, 4-Bromo-benzoic acid 4-trifluoromethyl-phenyl ester]
colony formation, CBDC compound alone (MK-45 cells): did not have an appreciable effect on colony formation
